Values joined by “and” are separate entries in the source; they are usually repeats but may differ in a detail not shown here. Equal values may be shown once. “Also recorded” adds a separate entry of the source.
What was measured:
CD-1 mice (male) = assay: Acute toxicity of NPe6 in mice (LD50); format: in vivo
[1] = in vivo
MRL/1pr mice [2] = assay: Survival of MRL/1pr mice after NPe6 photochemotherapy; format: in vivo; conditions: for Survival rate (%) of the mice: treated group, 8 mice
Text: (§1) MRL/1pr mice, which are known as a model of a spontaneous systemic auto-immune diseases, have such inherent property that they spontaneously develop the systemic auto-immune disease due to 1pr-gene. In this case, the characteristic observations of the resulting auto-immune disease include the formation of lymphoma and splenoma as caused by proliferation of heterolymphoid cells, the production of anti-ds-DNA antibody as the auto-antibody, and (or) the outbreak of lupus nephritis owing to the deposition of immune complexes, whereby an early death of the MRL/1pr mice can naturally be involved. For instance, untreated MRL/1pr mice usually have such nature that their mortality reaches 50% at 25 week-old.
(§2) To MRL/1pr mice (eight mice per group) of 18 week-old age which have been affected completely by auto-immune diseases, a solution of mono-L-aspartyl chlorin e6 tetrasodium salt (abbreviation: NPe6) dissolved in a physiological saline solution at a NPe6 concentration of 0.1 mg/ml was intra-venously administered in such an amount to give a dosage of NPe6 of 0.5 mg/kg. After 30 minutes from the administration of NPe6, the mice were irradiated with a laser light at wave-length of 664 nm in such a manner that the skin surface on the abdominal region already shaved off of said mice would receive the laser light over a wide area of about 25 cm^2 per mouse tested at an intensity of 20 Joules/cm^2. Thus, the NPe6 contained in the blood stream within the blood vessel beneath the skin of the abdominal region of the mice was irradiated with the laser light and thereby was excited photochemically. Such photochemotherapeutic procedure comprising the intravenous administration of NPe6 and the irradiation of the laser light was applied eight times to each of the mice under test for 10 days. After 24 hours from the completion of the therapeutic treatments, which was counted from the final run of irradiation of the laser light applied to the mice of the treated group, and thus at the time when the mice tested became 19 week-old, the judgment was made about the therapeutical effects appeared on the treated mice. Further, the survival effect on the treated mice was also observed over the period of from the start of practicing this therapeutic treatments to the point of the 49 week-old age of the mice.
For the untreated group of MRL/1pr mice (10 mice per group, 18-weeks old), merely a physiological saline solution (containing no NPe6) was administered intravenously in the same amount as that for the treated group of mice, and then the mice were irradiated with a laser light as similar as the treated group of mice.
(3) After the completion of the treatment as effected by the above-mentioned photochemotherapeutic procedure, the mice under the test were bred to be 49-weeks old and the survival rate (%) of the mice was measured once a week.

MRL/1pr mice [3] = assay: Kidney function (urea nitrogen in blood, protein in urine) of MRL/1pr mice after NPe6 photochemotherapy; format: in vivo; conditions: 19 weeks old, 24 h after 8th laser irradiation, NPe6 0.5 mg/kg i.v. + 664 nm laser, eight times
Text: as §1
(§3) To MRL/1pr mice (eight mice per group) of 18 week-old age which have been affected completely by auto-immune diseases, a solution of mono-L-aspartyl chlorin e6 tetrasodium salt (abbreviation: NPe6) dissolved in a physiological saline solution at a NPe6 concentration of 0.1 mg/ml was intra-venously administered in such an amount to give a dosage of NPe6 of 0.5 mg/kg. […] After 24 hours from the completion of the therapeutic treatments, which was counted from the final run of irradiation of the laser light applied to the mice of the treated group, and thus at the time when the mice tested became 19 week-old, the judgment was made about the therapeutical effects appeared on the treated mice. […]

anti-ds-DNA antibody = assay: Anti-ds-DNA antibody value in blood of MRL/1pr mice after NPe6 photochemotherapy (Anti-DNA kit); format: in vivo
Text: as §1, §3

MRL/1pr mice [4] = assay: Liver (GPT enzyme in blood) and skin safety in MRL/1pr mice after NPe6 photochemotherapy; format: in vivo
Procedure: as §2, with “Such photochemotherapeutic procedure comprising the intravenous administration of NPe6 and the irradiation of the laser light was applied eight times to each of the mice under test for 10 days.” left out, “Further, the survival effect on the treated mice was also observed over the period of from the start of practicing this therapeutic treatments to the point of the 49 week-old age of the mice.” left out

C=Cc1c(C)c2cc3nc(c(CC(=O)N[C@@H](CC(=O)[O-])C(=O)[O-])c4[nH]c(cc5nc(cc1[nH]2)C(C)=C5CC)c(C)c4C(=O)[O-])[C@@H](CCC(=O)[O-])[C@@H]3C.[Na+].[Na+].[Na+].[Na+] [NPe6, mono-L-aspartyl chlorin e6 tetrasodium salt]
acute toxicity, LD50 value (CD-1 mice (male)): 164 mg/kg | photo-toxicity test: reactions such as erythema, edema [1]: no reactions such as erythema, edema | Survival rate (%) of the mice (MRL/1pr mice [2]; age 18 weeks (start of treatment), number in parentheses = surviving mice): 100 (8) % | Survival rate (%) of the mice (MRL/1pr mice [2]; age 20 weeks): 100 (8) % | Survival rate (%) of the mice (MRL/1pr mice [2]; age 21 weeks): 100 (8) % | Survival rate (%) of the mice (MRL/1pr mice [2]; age 23 weeks): 100 (8) % | Survival rate (%) of the mice (MRL/1pr mice [2]; age 25 weeks): 100% and 100 (8) % | Survival rate (%) of the mice (MRL/1pr mice [2]; age 27 weeks): 100 (8) % | Survival rate (%) of the mice (MRL/1pr mice [2]; age 30 weeks): 100 (8) % | Survival rate (%) of the mice (MRL/1pr mice [2]; age 33 weeks): 88 (7) % | Survival rate (%) of the mice (MRL/1pr mice [2]; age 36 weeks): 88 (7) % | Survival rate (%) of the mice (MRL/1pr mice [2]; age 43 weeks): 75 (6) % | Survival rate (%) of the mice (MRL/1pr mice [2]; age 46 weeks): 63 (5) % | Survival rate (%) of the mice (MRL/1pr mice [2]; age 49 weeks): 63 (5) % | age at which the survival rate of the mice is 50 % (MRL/1pr mice [2]; treated group of MRL/1pr mice): > 49 weeks | content of protein in urine (MRL/1pr mice [3]): 85.2 ± 5.0 mg/dL | content of urea nitrogen in blood (MRL/1pr mice [3]): 22.3 ± 1.4 mg/dL | antibody value of anti-ds-DNA antibody in blood (anti-ds-DNA antibody; 19 weeks old, 24 h after 8th laser irradiation, NPe6 0.5 mg/kg i.v. + 664 nm laser 20 Joules/cm^2, eight times for 10 days): 5.7±5.3 IU/ml | effect on antibody value of the auto-antibody (anti-ds-DNA) in blood, in words (anti-ds-DNA antibody; NPe6 i.v. + laser light at 664 nm, versus untreated group): decreasing remarkably the antibody value; also recorded: significantly and remarkably decreased | content of GPT enzyme in the blood compared with untreated group (MRL/1pr mice [4]; 19 weeks old, 24 h after 8th laser irradiation): no difference was found | visual observation of the skin after eight percutaneous laser irradiations (MRL/1pr mice [4]; shaved abdominal region, 664 nm laser 20 Joules/cm^2): not observed visually that any action of changing the skin was involved
